Results reported in US10758484B2, “CED of SN-38-loaded micelles against brain tumor” (Nippon Kayaku Co., Ltd., priority 2014, dated 2020).

Columns and labels:
[1] = Distribution in normal rat brain after CED, fluorescence microscopy; conditions: for local brain tissue damage: free SN-38 infused by CED into normal rat brain
Method: Serial coronal tissue sections (20 μm thickness) were prepared using Tissue-Tek Cryo3 (Sakura Finetek USA, Inc., Torrance, Calif.), and frozen sections were examined under a fluorescence microscope, BIOREVO BZ9000 (Keyence, Osaka, Japan), at an excitation wavelength of 377 nm and an emission wavelength 447 nm to evaluate the distribution of NK012 within the tissues. Image data were recorded using BZ-II Analyzer 1.10 software (Keyence).
Animals were euthanized immediately after infusion and serial sections were obtained using a cryostat (20 μm thickness; 1 mm interval).

[2] = test system: 9L orthotopic brain tumor model; assay: Survival study, 9L orthotopic brain tumor model; format: in vivo, rat; conditions: rats with 9L tumor, 0.04 mg by single CED on day 5 after implantation
Method: Fischer 344 rats were used for the 9L model, and F344/NJc1-rnu/rnu (nude) rats were used for the U87MG model. […] Briefly, 9L and U87MG cells were harvested using trypsin-EDTA following washing once with complete medium, and resuspended in cold phosphate-buffered saline (PBS) for implantation. A cell suspension containing 1×10^4 (9L) or 2×10^5 (U87MG) cells per 10 μl of PBS was used for implantation into the striatum region of rat brains. Under deep isoflurane anesthesia, rats were placed in a small animal stereotactic frame (David Kopf Instruments, Tujunga, Calif.). […] Five microliters of cell suspension were injected at a depth of 4.5 mm from the brain surface. After a wait of 2 minutes, another 5 μl were injected at a depth of 4 mm. After a final wait of 2 minutes, the needle was removed, and the wound was closed with sutures.
Fourteen rats with implanted U87MG tumor cells were randomly divided into two groups on day 5 after tumor cell implantation and treated as follows: (1) CED of PBS (n=7) as a control, and (2) CED of NK012 (n=7). […] All other rats were monitored daily for survival. Survival was compared between the treatment groups using a log-rank test. Estimated survival was expressed as a Kaplan-Meier curve.

7-ethyl-10-hydroxy-camptothecine [SN-38]
distribution after CED (description) ([1]; CED into normal rat striatum, fluorescence of SN-38): quite restricted
local brain tissue damage [1]: severe local tissue damage
local brain tissue damage ([1]; listed as free SN-38): increased local brain damage
median survival [2]: 28 days
survival range after tumor cell implantation [2]: 24 to 30 days
